{"source": "patent US10556008B2", "about": "“Methods of treatment of keloid using an anti-VEGF agent” (priority 2012, dated 2020)", "key": {"[1]": {"details": "commercially available topical steroids (skin); cited from earlier work"}, "[2]": {"test_system": "pterygium recurrence", "assay": "Treatment of pterygium recurrence after pterygiectomy with bevacizumab, with or without combination therapy (Patients 1-5)", "assay_type": "in vivo, human", "details": "for Time without recurrence of pterygium: steroid and NSAID; for No pterygium regrowth observed as of (time after surgery): after third surgical removal and conjunctival grafting; for No pterygium regrowth observed as of (time after surgery) / No regrowth of pterygium observed as of (time after surgery): bevacizumab injections, NSAID eye drops; for No regrowth of pterygium observed as of (time after surgery): steroid eye drops", "excerpt": "A topical anesthetic (proparacaine 0.5% eye drops or Alcaine manufactured by Alcon Laboratories Inc.) was applied to the eye following recent pterygiectomy (from ˜5 days to 2 months following surgery). The patients were examined to identify vascular growth on eye conjunctiva. […] If blood was present (indicating presence of blood vessel), the syringe needle was withdrawn. […] If bleeding occurred (e.g., in the form of subconjunctival or subcutaneous hematoma), tamponade with Q-Tips® was performed until bleeding stopped; then injection was resumed.\nAnti-inflammatory steroid drops (prednisolone acetate 1% (Allergan)) were given for 6 weeks with frequency range from once a day to 4 times a day (every 6 hours) to every hour (24 drops/day). NSAID eye drops (Diclofenac 0.1% (Bausch and Lomb)) drops (1 mg/mL to 100 mg/mL) were given multiple times, 4 times a day every 6 hours for 3 to 6 months.\nPatients were followed up to monitor for appearance of new blood vessel growth in the eye.\nFive patients (Patients 1-5) underwent surgery to remove primary pterygium (pterygiectomy) from the cornea of one or both eyes followed by conjunctival grafting were treated as described below."}, "[3]": {"test_system": "recurrent pterygium", "details": "bevacizumab not as part of the combination therapy; temporarily = e.g. 6 months or less; cited from earlier work"}}, "note": "“Also recorded” adds a separate entry of the source.", "data": [{"compound": "CC(=O)OCC(=O)[C@@]12OC3(CCCC3)O[C@@H]1C[C@H]1[C@@H]3CCC4=CC(=O)C=C[C@]4(C)[C@@]3(F)[C@@H](O)C[C@@]12C", "note": "[Amcinonide]", "values": [{"measurement": "Potency", "setting": "[1]", "result": "High"}]}, {"compound": "CCCCC(=O)O[C@]1(C(=O)CO)[C@@H](C)C[C@H]2[C@@H]3CCC4=CC(=O)C=C[C@]4(C)[C@@]3(F)[C@@H](O)C[C@@]21C", "note": "[Betamethasone valerate]", "values": [{"measurement": "Potency", "setting": "[1]", "result": "Medium-Low"}]}, {"compound": "Bevacizumab: 149-Kd full length humanized anti-vascular endothelial growth factor (anti-VEGF) antibody", "values": [{"measurement": "Time without recurrence of pterygium", "setting": "[2]; FIG. 2 (Patient 2), combination therapy of bevacizumab", "result": "> 8", "unit": "months"}, {"measurement": "Time without recurrence of pterygium", "setting": "[2]; FIG. 4 (Patient 4), combination therapy of bevacizumab", "result": "> 9", "unit": "months"}, {"measurement": "Time without recurrence of pterygium", "setting": "[2]; FIG. 5 (Patient 5), combination therapy of bevacizumab", "result": "> 3", "unit": "months"}, {"measurement": "Time without recurrence of pterygium", "setting": "[2]; FIGS. 3A, 3B (Patient 3), combination therapy of bevacizumab", "result": "> 6", "unit": "months"}, {"measurement": "Pterygium Recurrence", "setting": "[2]; Patient 1, Right eye, bevacizumab + steroid (injected and/or eye drops) + topical NSAID eye drops", "result": "No"}, {"measurement": "No pterygium regrowth observed as of (time after surgery)", "setting": "[2]; Patient 1 right eye, bevacizumab+Kenalog injection", "result": "about 520 days"}, {"measurement": "Pterygium Recurrence", "setting": "[2]; Patient 2, Left eye, bevacizumab + steroid (injected and/or eye drops) + topical NSAID eye drops", "result": "No"}, {"measurement": "No pterygium regrowth observed as of (time after surgery)", "setting": "[2]; Patient 2 left eye, bevacizumab and Kenalog injections", "result": "about 240 days"}, {"measurement": "Pterygium recurrence after bevacizumab injection alone", "setting": "[2]; Patient 2 left eye, single bevacizumab injection on Day 17 after second surgical removal, no steroid or NSAID", "result": "further recurrence of the pterygium"}, {"measurement": "Pterygium Recurrence", "setting": "[2]; Patient 3 (number not printed in row), Left Eye, bevacizumab + steroid (Kenalog injection), no NSAID", "result": "completely regrew and Yes"}, {"measurement": "Pterygium Recurrence", "setting": "[2]; Patient 3 (number not printed in row), Right Eye, bevacizumab + steroid + topical NSAID eye drops", "result": "No"}, {"measurement": "No regrowth of pterygium observed as of (time after surgery)", "setting": "[2]; Patient 3 right eye, after surgical removal and amniotic membrane grafting", "result": "about 130 days"}, {"measurement": "Pterygium Recurrence", "setting": "[2]; Patient 4, Right Eye, bevacizumab + steroid + topical NSAID eye drops", "result": "No"}, {"measurement": "No regrowth of pterygium observed as of (time after surgery)", "setting": "[2]; Patient 4 right eye, after first surgical procedure, bevacizumab and Kenalog injections", "result": "about 250 days"}, {"measurement": "Pterygium Recurrence", "setting": "[2]; Patient 5, Right Eye, bevacizumab + steroid + topical NSAID eye drops", "result": "No"}, {"measurement": "Pterygium regrowth (overall conclusion)", "setting": "[2]; combination therapy of bevacizumab, anti-inflammatory steroid (injected or topical) and topical NSAID, Patients 1-5", "result": "inhibited"}, {"measurement": "Combination therapy compared with bevacizumab alone", "setting": "[2]; combination therapy of bevacizumab, anti-inflammatory steroid and topical NSAID vs bevacizumab alone", "result": "superior"}, {"measurement": "Effect on recurrent pterygium reported in the literature", "setting": "[3]", "result": "not effective or only temporarily effective; also recorded: temporary treatment"}]}]}
